For this assay, the system named is M. tuberculosis H37Rv growth inhibition with meropenem. Briefly: dose response, H37Rv, with and without meropenem (AID 434987).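 Note: growth over 7 days at 37 °C before Alamar Blue read on day 9.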
The mark [1] stands for this setting: M. tuberculosis H37Rv growth inhibition, measured here: IC50 without meropenem.
Where [2] appears, read: M. tuberculosis H37Rv growth inhibition, measured here: IC90 without meropenem.
Setting [3] is: measured here: IC90 with meropenem.

Structures are written as SMILES. pIC50: −log10 of the molar value. Calls of active or inactive are those of the source. The rule behind the calls is not given here. A value given as a limit tells only on which side of the number the result lay.

For the compound `Cc1c2c(nc3c(C(=O)NC4CCCC4)cnn13)CCCC2`, the IC50 was 73.4 µM (inactive). Moreover, the pIC50 under setting [1] is under 4.00. The concentration for an effect of 90% (IC90) under setting [2] is over 100 µM. For the same compound, under setting [3], the IC90 was over 100 µM.
For the compound `CCc1ccc2c(c1)C(c1ccc([N+](=O)[O-])cc1)=NNC(c1ccc(C)cc1)=N2`, the IC50 is > 100 µM (inactive). This compound gave a pIC50 under setting [1] of under 4.00. The same compound registered an IC90 under setting [2] of over 100 µM. In addition, under setting [3], the IC90 was over 100 µM.
Turning to `CCN(CC)C(=O)COc1ccc(-c2nnc(Nc3ccc(OC)c(C(=O)NC)c3)c3ccccc23)cc1`, the IC50 is 68.8 µM (inactive). For the same compound, the pIC50 under setting [1] is 4.08. Under setting [2], this compound gave a 90% effect concentration (IC90) of over 100 µM. For the same compound, the IC90 under setting [3] was over 100 µM.
Consider `CCOc1ccc(N(CC(=O)NCCSCc2ccccc2Cl)S(C)(=O)=O)cc1`, for which the IC50 is > 100 µM (inactive). In addition, the pIC50 under setting [1] was under 4.00. Under setting [2], the IC90 is over 100 µM. The compound further displayed an IC90 under setting [3] of over 100 µM.
Regarding `Cc1ccc(C(=O)NCCc2nnc3ccc(SCC(=O)Nc4ccccc4C)nn23)cc1`, the IC50 was > 100 µM (inactive). This compound had a pIC50 under setting [1] of under 4.00. The IC90 under setting [2] is over 100 µM. Besides, the IC90 under setting [3] was over 100 µM.
For `O=C(Cn1ncc2c3ccccc3n(Cc3ccccc3F)c2c1=O)NCCCN1CCCC1=O`, the IC50 is > 100 µM (inactive). The compound also showed a pIC50 under setting [1] of under 4.00. Further, the IC90 under setting [2] is over 100 µM. Under setting [3], this compound registered an IC90 of over 100 µM.
In the case of `Nc1n[nH]c(N)c1N=Nc1cccc(F)c1`, the IC50 was > 100 µM (inactive). Moreover, the pIC50 under setting [1] is under 4.00. Further, the IC90 under setting [2] is over 100 µM. Also, under setting [3], the IC90 was over 100 µM.
In the case of `Cc1cccc(C)c1-n1c(C)cc(/C=C2\C(=O)NN(c3ccccc3)C2=O)c1C`, the IC50 was > 100 µM (inactive). The same compound had a pIC50 under setting [1] of under 4.00. For the same compound, the IC90 under setting [2] was over 100 µM. Also, the IC90 under setting [3] is over 100 µM.
As for `Cn1ccnc1C(=O)Cc1ccc([N+](=O)[O-])cc1`, the pIC50 was 5.11. This compound also gave a pIC50 under setting [1] of 4.36. The same compound came in with a 90% effect concentration (IC90) under setting [2] of 48.9 µM. Under setting [3], this compound registered an IC90 of 22.6 µM.
For the compound `COc1cc2c(=O)n(Cc3ccco3)c(=O)n(CC(=O)c3cccc(Br)c3)c2cc1OC`, the IC50 was > 100 µM (inactive). Under setting [1], this compound showed a pIC50 of under 4.00. Also, under setting [2], the IC90 was over 100 µM. Besides, the IC90 under setting [3] was over 100 µM.
Turning to `COC(=O)c1cc(OC)c(OC)cc1NC(=O)c1ccc(OC)c(OC)c1`, the pIC50 was 4.50. Further, under setting [1], the negative logarithm of the IC50 (pIC50) is under 4.00. Under setting [2], this compound displayed a concentration for an effect of 90% (IC90) of over 100 µM. Further, the IC90 under setting [3] was over 100 µM.
As for `Cc1nc(SCC(=O)Nc2ccc(F)cc2)c(C#N)c(C)c1CC(=O)c1ccc(Br)cc1`, the IC50 is > 100 µM (inactive). For the same compound, under setting [1], the pIC50 is under 4.00. In addition, the IC90 under setting [2] was over 100 µM. For the same compound, the IC90 under setting [3] is over 100 µM.
As for `Cc1ccc(C)c(NC(=O)COC(=O)c2ccc(S(=O)(=O)N3CCCCC3)cc2)c1`, the IC50 was > 100 µM (inactive). In addition, the pIC50 under setting [1] was under 4.00. The compound further came in with an IC90 under setting [2] of over 100 µM. The IC90 under setting [3] was over 100 µM.
For `COc1ccc2nc(NC(=O)c3ccc(Br)s3)sc2c1`, the IC50 is > 100 µM (inactive). Also, under setting [1], the pIC50 was under 4.00. Moreover, the 90% effect concentration (IC90) under setting [2] was over 100 µM. This compound had an IC90 under setting [3] of over 100 µM.
Turning to `Cc1nn(C)c(C)c1C1C(C#N)=C(N)OC2=C1C(=O)CCC2` (stereo not drawn), the IC50 was > 100 µM (inactive). In addition, the pIC50 under setting [1] is under 4.00. Under setting [2], this compound returned an IC90 of over 100 µM. The IC90 under setting [3] is over 100 µM.
`O=C(OCn1nnc2ccccc2c1=O)c1ccc2c(=O)n3c(nc2c1)CCC3`: the IC50 was 18 µM (inactive). In addition, under setting [1], the negative logarithm of the IC50 (pIC50) is 4.45. The compound further displayed an IC90 under setting [2] of over 100 µM. The IC90 under setting [3] came out at 26.1 µM.
For `CC1(c2ccc([N+](=O)[O-])cc2)NC(=O)N(CC(=O)c2ccc3c(c2)OCO3)C1=O` (stereo not drawn), the IC50 is > 100 µM (inactive). Besides, under setting [1], the pIC50 is under 4.00. Under setting [2], the IC90 is over 100 µM. The compound further yielded an IC90 under setting [3] of over 100 µM.
As to `COc1ccc(-n2cc(-c3ccccc3)c3c(NN4CCOCC4)ncnc32)cc1`, the IC50 was 22.4 µM (inactive). The pIC50 under setting [1] is 4.48. The same compound returned an IC90 under setting [2] of 60.3 µM. Under setting [3], this compound came in with an IC90 of 36.1 µM.
`COc1ccc2nc(SCC(=O)N3CCCCCC3)c(C#N)cc2c1`: the IC50 is > 50 µM (inactive). The pIC50 under setting [1] is under 4.00. Also, the IC90 under setting [2] was over 100 µM. The compound further had an IC90 under setting [3] of over 50 µM.
In the same order, the values of `O=C(OCC(=O)c1c[nH]c2ccccc12)c1cccc([N+](=O)[O-])c1` are > 100 µM (inactive), under 4.00, over 100 µM and over 100 µM.
The matching figures for `Cn1nnnc1Sc1ncnc2scc(-c3ccc(C(F)(F)F)cc3)c12`: 6.75 µM (inactive), 4.84, 24.4 µM and 15 µM.
Take `COC(=O)c1ccc(-c2cc(C(=O)O)c3cc4c(cc3n2)OCCO4)cc1`: the IC50 is > 100 µM (inactive). The same compound showed a negative logarithm of the IC50 (pIC50) under setting [1] of under 4.00. Also, the concentration for an effect of 90% (IC90) under setting [2] was over 100 µM. Further, the IC90 under setting [3] was over 100 µM.

The values above are taken from PubChem BioAssay AID434987 (Southern Research Specialized Biocontainment Screening …, 2010).
